The target in the experiment is T1, GST-tagged truncated LRRK2 (Homo sapiens, UniProt Q5S007).
T1 construct: GST-tagged truncated LRRK2 from Invitrogen (Cat # PV4874); GST; purchased Invitrogen PV4874
The experiment in a line: LRRK2 kinase assay (Lantha Screen). It is filed as biochemical. The conditions noted are these: 1 mM ATP (head); a = geometric mean of >=4 determinations, b = single determination; read-out: LRRK2 LANTHA EC50 at 1 mM ATP; Geometric mean of 2-3 determinations unless otherwise indicated. The procedure:
LRRK2 kinase activity was measured using Lantha Screen technology from Invitrogen. GST-tagged truncated LRRK2 from Invitrogen (Cat # PV4874) was incubated with a fluorescein-labeled peptide substrate based upon ezrin/radixin/moesin (ERM), also known as LRRKtide (Invitrogen cat # PR8976A), in the presence of a dose response of compound. Upon completion, the assay was stopped and detected with a terbium labeled anti-phospho-ERM antibody (Invitrogen, cat # PR8975A). […] The compound dose response was prepared by diluting compound to a top concentration of 3.16 mM in 100% DMSO and serial diluted by half-log in DMSO 11 times. Aliquots (3.5 μL) of the 100% DMSO dose response were mixed with 46.5 μL water then 1 μL of this mixture was added to the 3 μL substrate mix in the 384-well plate. The kinase reaction was started with 3 μL of a working solution of LRRK2 enzyme at a concentration of 4 μg/mL. […] The reaction was allowed to progress at room temperature for two hours and then stopped with the addition of 7 μL of detection buffer (20 mM Tris pH 7.6, 0.01% NP-40, 0.02% NaN3, 6 mM EDTA with 2 nM terbium labeled anti-phospho-ERM). After an incubation of 1 hour at room temperature, the plate was read on an Envision with an excitation wavelength of 340 nm and a reading emission at both 520 nm and 495 nm. The ratio of the 520 nm and 495 nm emission was used to analyze the data.

The structures appear in SMILES notation. pEC50: −log10 of the molar value.

T1 sequence (Q5S007 970-2527 limits assumed): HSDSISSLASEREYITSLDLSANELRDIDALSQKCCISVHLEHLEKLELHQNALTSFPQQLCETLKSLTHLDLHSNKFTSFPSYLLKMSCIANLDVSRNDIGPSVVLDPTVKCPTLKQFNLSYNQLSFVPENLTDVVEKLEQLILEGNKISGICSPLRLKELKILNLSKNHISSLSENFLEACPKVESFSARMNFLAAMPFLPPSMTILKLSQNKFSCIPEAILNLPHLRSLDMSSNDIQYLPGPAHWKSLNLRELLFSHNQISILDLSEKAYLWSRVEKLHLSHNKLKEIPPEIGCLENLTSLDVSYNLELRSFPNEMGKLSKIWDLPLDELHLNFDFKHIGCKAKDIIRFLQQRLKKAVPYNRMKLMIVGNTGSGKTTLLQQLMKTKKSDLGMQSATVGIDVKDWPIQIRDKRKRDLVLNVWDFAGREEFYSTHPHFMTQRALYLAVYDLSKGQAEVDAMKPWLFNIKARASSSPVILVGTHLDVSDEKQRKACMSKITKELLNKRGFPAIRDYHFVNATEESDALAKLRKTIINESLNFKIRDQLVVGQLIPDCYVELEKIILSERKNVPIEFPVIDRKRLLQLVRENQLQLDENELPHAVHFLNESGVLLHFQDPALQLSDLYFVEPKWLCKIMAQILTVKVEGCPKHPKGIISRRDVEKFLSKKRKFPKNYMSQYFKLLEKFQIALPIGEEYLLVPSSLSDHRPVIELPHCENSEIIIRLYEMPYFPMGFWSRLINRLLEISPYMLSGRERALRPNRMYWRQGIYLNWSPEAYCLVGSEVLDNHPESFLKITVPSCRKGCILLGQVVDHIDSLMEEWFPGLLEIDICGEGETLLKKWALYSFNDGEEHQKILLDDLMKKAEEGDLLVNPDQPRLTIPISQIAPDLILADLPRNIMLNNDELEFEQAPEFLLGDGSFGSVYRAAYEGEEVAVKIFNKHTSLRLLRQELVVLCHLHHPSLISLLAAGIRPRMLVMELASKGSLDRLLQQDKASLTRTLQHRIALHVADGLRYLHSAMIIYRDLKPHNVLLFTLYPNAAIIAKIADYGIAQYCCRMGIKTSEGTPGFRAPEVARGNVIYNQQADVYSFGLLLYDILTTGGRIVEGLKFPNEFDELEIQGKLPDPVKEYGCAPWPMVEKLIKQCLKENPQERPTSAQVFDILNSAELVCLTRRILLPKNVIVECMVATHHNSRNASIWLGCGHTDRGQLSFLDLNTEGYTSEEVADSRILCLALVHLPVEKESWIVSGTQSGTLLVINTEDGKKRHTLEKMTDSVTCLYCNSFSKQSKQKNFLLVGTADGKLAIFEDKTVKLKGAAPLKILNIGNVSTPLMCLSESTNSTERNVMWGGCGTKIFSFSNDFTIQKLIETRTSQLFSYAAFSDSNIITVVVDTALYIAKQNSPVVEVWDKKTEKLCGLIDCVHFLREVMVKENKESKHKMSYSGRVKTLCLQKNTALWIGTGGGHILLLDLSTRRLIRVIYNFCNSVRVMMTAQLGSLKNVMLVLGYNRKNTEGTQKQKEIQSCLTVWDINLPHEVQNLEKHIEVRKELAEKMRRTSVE

For `N#Cc1cccc(-c2c[nH]c3nccc(N4CCOCC4)c23)c1` [Example 1, 3-[4-(Morpholin-4-yl)-1H-pyrrolo[2,3-b]pyridin-3-yl]benzonitrile], the pEC50 is 8.37.

In the case of `N#Cc1cccc(-c2c[nH]c3nccc(N4CCOCC4)c23)c1F` [Example 2, 2-Fluoro-3-[4-(morpholin-4-yl)-1H-pyrrolo[2,3-b]pyridin-3-yl]benzonitrile], the pEC50 is 8.29.

Take `c1cnn2c(-c3c[nH]c4nccc(N5CCOCC5)c34)cnc2c1` [Example 3, 3-[4-(Morpholin-4-yl)-1H-pyrrolo[2,3-b]pyridin-3-yl]imidazo[1,2-b]pyridazine]: the pEC50 was 7.85.

Regarding `Cn1cc(-c2c[nH]c3nccc(N4CCOCC4)c23)cc1C#N` [Example 4, 1-Methyl-4-[4-(morpholin-4-yl)-1H-pyrrolo[2,3-b]pyridin-3-yl]-1H-pyrrole-2-carbonitrile], the pEC50 was 8.55.

Turning to `Cn1cc(-c2c[nH]c3nccc(N4CCOCC4)c23)nc1C#N` [Example 5, 1-Methyl-4-[4-(morpholin-4-yl)-1H-pyrrolo[2,3-b]pyridin-3-yl]-1H-imidazole-2-carbonitrile], the negative-log EC50 (pEC50) is 8.28.

Turning to `Cn1cc(-c2c[nH]c3nncc(N4CCOCC4)c23)cc1C#N` [Example 6, 1-Methyl-4-[4-(morpholin-4-yl)-7H-pyrrolo[2,3-c]pyridazin-5-yl]-1H-pyrrole-2-carbonitrile], the pEC50 was 7.85.

Regarding `Cn1cc(-c2c(Cl)[nH]c3nccc(N4CCOCC4)c23)cc1C#N` [Example 7, 4-[2-Chloro-4-(morpholin-4-yl)-1H-pyrrolo[2,3-b]pyridin-3-yl]-1-methyl-1H-pyrrole-2-carbonitrile], the pEC50 was 8.89.

With `Cc1[nH]c2nccc(N3CCOCC3)c2c1-c1cccc(C#N)c1` [Example 8, 3-[2-Methyl-4-(morpholin-4-yl)-1H-pyrrolo[2,3-b]pyridin-3-yl]benzonitrile], the pEC50 is 7.66.

For `Cc1cc(N2CCOCC2)c2c(-c3cccc(C#N)c3)c[nH]c2n1` [Example 9, 3-[6-Methyl-4-(morpholin-4-yl)-1H-pyrrolo[2,3-b]pyridin-3-yl]benzonitrile], the pEC50 is 6.68.

`N#Cc1cccc(-c2c[nH]c3ncc(CO)c(N4CCOCC4)c23)c1` [Example 10, 3-[5-(Hydroxymethyl)-4-(morpholin-4-yl)-1H-pyrrolo[2,3-b]pyridin-3-yl]benzonitrile]: the pEC50 is 7.10.

As to `N#Cc1cccc(-c2c[nH]c3ncc(C#N)c(N4CCOCC4)c23)c1` [Example 11, 3-(3-Cyanophenyl)-4-(morpholin-4-yl)-1H-pyrrolo[2,3-b]pyridine-5-carbonitrile], the pEC50 was 7.62.

For `Cn1cc(-c2c[nH]c3nccc(C4=CCOCC4)c23)cn1` [Example 12, 4-(3,6-Dihydro-2H-pyran-4-yl)-3-(1-methyl-1H-pyrazol-4-yl)-1H-pyrrolo[2,3-b]pyridine], the pEC50 was 7.22.

Regarding `Cn1cc(-c2c[nH]c3nccc(N4CCOCC4)c23)cn1` [Example 13, 3-(1-methyl-1H-pyrazol-4-yl)-4-(morpholin-4-yl)-1H-pyrrolo[2,3-b]pyridine], the pEC50 is 7.58.

`CN(C)c1c(C#N)cnc2[nH]cc(-c3cccc(C#N)c3F)c12` [Example 14, 3-(3-cyano-2-fluorophenyl)-4-(dimethylamino)-1H-pyrrolo[2,3-b]pyridine-5-carbonitrile]: the pEC50 was 7.59.

`COc1ccc(F)cc1-c1c[nH]c2nccc(N3CCOCC3)c12` [Example 15, 3-(5-fluoro-2-methoxyphenyl)-4-(morpholin-4-yl)-1H-pyrrolo[2,3-b]pyridine]: the pEC50 is 7.03.

With `COc1cc(F)cc(-c2c[nH]c3nccc(N4CCOCC4)c23)c1` [Example 16, 3-(3-fluoro-5-methoxyphenyl)-4-(morpholin-4-yl)-1H-pyrrolo[2,3-b]pyridine], the negative-log EC50 (pEC50) was 7.35.

Regarding `Cc1[nH]c2nccc(N3CCOCC3)c2c1-c1cnn(C)c1` [Example 17, 2-methyl-3-(1-methyl-1H-pyrazol-4-yl)-4-(morpholin-4-yl)-1H-pyrrolo[2,3-b]pyridine], the pEC50 was 6.86.

In the case of `Cc1cc(N2CCOCC2)c2c(-c3cccc(C#N)c3F)c[nH]c2n1` [Example 18, 2-fluoro-3-[6-methyl-4-(morpholin-4-yl)-1H-pyrrolo[2,3-b]pyridin-3-yl]benzonitrile], the pEC50 was 7.02.

`N#Cc1cccc(-c2c[nH]c3nccc(N4CCOCC4)c23)n1` [Example 19, 6-[4-(morpholin-4-yl)-1H-pyrrolo[2,3-b]pyridin-3-yl]pyridine-2-carbonitrile]: the pEC50 was 7.32.

In the case of `Clc1cccc(-c2c[nH]c3nccc(N4CCOCC4)c23)c1` [Example 20, 3-(3-chlorophenyl)-4-(morpholin-4-yl)-1H-pyrrolo[2,3-b]pyridine], the pEC50 is 7.27.

Consider `Fc1cc(Cl)cc(-c2c[nH]c3nccc(N4CCOCC4)c23)c1` [Example 21, 3-(3-chloro-5-fluorophenyl)-4-(morpholin-4-yl)-1H-pyrrolo[2,3-b]pyridine], for which the pEC50 is 7.29.

With `Fc1ccc(F)c(-c2c[nH]c3nccc(N4CCOCC4)c23)c1` [Example 22, 3-(2,5-difluorophenyl)-4-(morpholin-4-yl)-1H-pyrrolo[2,3-b]pyridine], the pEC50 is 6.89.

As for `Clc1ccccc1-c1c[nH]c2nccc(N3CCOCC3)c12` [Example 23, 3-(2-chlorophenyl)-4-(morpholin-4-yl)-1H-pyrrolo[2,3-b]pyridine], the pEC50 is 6.84.

`Fc1cccc(-c2c[nH]c3nccc(N4CCOCC4)c23)c1F` [Example 24, 3-(2,3-difluorophenyl)-4-(morpholin-4-yl)-1H-pyrrolo[2,3-b]pyridine]: the pEC50 is 7.77.

Take `Fc1cccc(-c2c[nH]c3nccc(N4CCOCC4)c23)c1` [Example 25, 3-(3-fluorophenyl)-4-(morpholin-4-yl)-1H-pyrrolo[2,3-b]pyridine]: the pEC50 is 7.46.

As to `Fc1ccccc1-c1c[nH]c2nccc(N3CCOCC3)c12` [Example 26, 3-(2-fluorophenyl)-4-(morpholin-4-yl)-1H-pyrrolo[2,3-b]pyridine], the pEC50 was 7.54.

With `Fc1ccc(Cl)cc1-c1c[nH]c2nccc(N3CCOCC3)c12` [Example 27, 3-(5-chloro-2-fluorophenyl)-4-(morpholin-4-yl)-1H-pyrrolo[2,3-b]pyridine], the pEC50 is 7.24.

Take `OCc1cccc(-c2c[nH]c3nccc(N4CCOCC4)c23)c1` [Example 28, {3-[4-(morpholin-4-yl)-1H-pyrrolo[2,3-b]pyridin-3-yl]phenyl}methanol]: the pEC50 is 7.02.

Turning to `OCc1ccc(F)c(-c2c[nH]c3nccc(N4CCOCC4)c23)c1` [Example 29, {4-fluoro-3-[4-(morpholin-4-yl)-1H-pyrrolo[2,3-b]pyridin-3-yl]phenyl}methanol], the pEC50 is 7.14.

In the case of `Cc1nnc(-c2cccc(-c3c[nH]c4nccc(N5CCOCC5)c34)c2)o1` [Example 30, 3-[3-(5-methyl-1,3,4-oxadiazol-2-yl)phenyl]-4-(morpholin-4-yl)-1H-pyrrolo[2,3-b]pyridine], the pEC50 is 6.75.

Take `COc1cccc(-c2c[nH]c3nccc(N4CCOCC4)c23)c1` [Example 31, 3-(3-methoxyphenyl)-4-(morpholin-4-yl)-1H-pyrrolo[2,3-b]pyridine]: the pEC50 is 6.91.

Source of the values: patent US9695171B2, “3,4-disubstituted-1 H-pyrrolo[2,3-b]pyridines and 4,5-disubstituted-7H-pyrrolo[2,3-c]pyridazines as LRRK2 inhibitors” (Pfizer Inc., priority 2013, dated 2017).
